The NIST ThermoML archive (doi:10.1016/j.fluid.2018.05.028)

Experiment: xn = mol fraction of the nth substance listed
Conditions: 101 kPa, Liquid; for viscosity: Concentric cylinders viscometry; for speed of sound: Single path-length method; for mass density: Vibrating tube method

CCCCCCCCCCCCCCCC [hexadecane] + CCCCO
Conditions | mass density [kg/m3] | speed of sound [m/s] | viscosity [mPa·s]
293.15 K, x2 = 0 | 773.35 | 1357.4 | 3.408
293.15 K, x2 = 0.1 | 773.9 | 1349.6 | 3.204
293.15 K, x2 = 0.2 | 774.92 | 1343.3 | 3.109
293.15 K, x2 = 0.3 | 776.24 | 1336.8 | 2.998
293.15 K, x2 = 0.4 | 777.91 | 1329.7 | 2.935
293.15 K, x2 = 0.5 | 780.07 | 1322 | 2.9
293.15 K, x2 = 0.6 | 782.88 | 1313.4 | 2.854
293.15 K, x2 = 0.7 | 786.53 | 1303.1 | 2.874
293.15 K, x2 = 0.8 | 791.49 | 1290.7 | 2.875
293.15 K, x2 = 0.9 | 798.54 | 1275.4 | 2.856
298.15 K, x2 = 0 | 769.87 | 1338.5 | 3.035
298.15 K, x2 = 0.1 | 770.35 | 1330.6 | 2.852
298.15 K, x2 = 0.2 | 771.34 | 1324.4 | 2.77
298.15 K, x2 = 0.3 | 772.63 | 1317.9 | 2.675
298.15 K, x2 = 0.4 | 774.28 | 1310.8 | 2.616
298.15 K, x2 = 0.5 | 776.41 | 1303.2 | 2.578
298.15 K, x2 = 0.6 | 779.18 | 1294.7 | 2.535
298.15 K, x2 = 0.7 | 782.81 | 1284.7 | 2.543
298.15 K, x2 = 0.8 | 787.73 | 1272.7 | 2.541
298.15 K, x2 = 0.9 | 794.77 | 1257.8 | 2.52
303.15 K, x2 = 0 | 766.4 | 1319.8 | 2.708
303.15 K, x2 = 0.1 | 766.82 | 1311.8 | 2.544
303.15 K, x2 = 0.2 | 767.77 | 1305.6 | 2.471
303.15 K, x2 = 0.3 | 769.03 | 1299.1 | 2.387
303.15 K, x2 = 0.4 | 770.64 | 1292.1 | 2.332
303.15 K, x2 = 0.5 | 772.74 | 1284.6 | 2.294
303.15 K, x2 = 0.6 | 775.47 | 1276.2 | 2.249
303.15 K, x2 = 0.7 | 779.07 | 1266.4 | 2.246
303.15 K, x2 = 0.8 | 783.97 | 1254.7 | 2.244
303.15 K, x2 = 0.9 | 790.97 | 1240.2 | 2.219
308.15 K, x2 = 0 | 762.95 | 1301.3 | 2.432
308.15 K, x2 = 0.1 | 763.28 | 1293.2 | 2.283
308.15 K, x2 = 0.2 | 764.19 | 1287 | 2.217
308.15 K, x2 = 0.3 | 765.42 | 1280.5 | 2.144
308.15 K, x2 = 0.4 | 766.99 | 1273.5 | 2.092
308.15 K, x2 = 0.5 | 769.05 | 1266.1 | 2.053
308.15 K, x2 = 0.6 | 771.75 | 1257.8 | 2.012
308.15 K, x2 = 0.7 | 775.31 | 1248.2 | 2.001
308.15 K, x2 = 0.8 | 780.17 | 1236.8 | 1.992
308.15 K, x2 = 0.9 | 787.14 | 1222.8 | 1.967
313.15 K, x2 = 0 | 759.49 | 1283.1 | 2.199
313.15 K, x2 = 0.1 | 759.74 | 1274.9 | 2.064
313.15 K, x2 = 0.2 | 760.61 | 1268.5 | 2.004
313.15 K, x2 = 0.3 | 761.8 | 1262.1 | 1.939
313.15 K, x2 = 0.4 | 763.33 | 1255.1 | 1.89
313.15 K, x2 = 0.5 | 765.35 | 1247.7 | 1.851
313.15 K, x2 = 0.6 | 768.01 | 1239.6 | 1.811
313.15 K, x2 = 0.7 | 771.52 | 1230.1 | 1.794
313.15 K, x2 = 0.8 | 776.34 | 1219 | 1.781
313.15 K, x2 = 0.9 | 783.27 | 1205.5 | 1.755
318.15 K, x2 = 0 | 756.05 | 1265 | 1.996
318.15 K, x2 = 0.1 | 756.2 | 1256.7 | 1.871
318.15 K, x2 = 0.2 | 757.02 | 1250.3 | 1.815
318.15 K, x2 = 0.3 | 758.17 | 1243.8 | 1.756
318.15 K, x2 = 0.4 | 759.66 | 1236.9 | 1.709
318.15 K, x2 = 0.5 | 761.63 | 1229.5 | 1.67
318.15 K, x2 = 0.6 | 764.24 | 1221.4 | 1.631
318.15 K, x2 = 0.7 | 767.71 | 1212.1 | 1.613
318.15 K, x2 = 0.8 | 772.49 | 1201.3 | 1.593
318.15 K, x2 = 0.9 | 779.38 | 1188.2 | 1.564
323.15 K, x2 = 0 | 752.61 | 1247.1 | 1.823
323.15 K, x2 = 0.1 | 752.66 | 1238.6 | 1.707
323.15 K, x2 = 0.2 | 753.42 | 1232.1 | 1.654
323.15 K, x2 = 0.3 | 754.53 | 1225.7 | 1.6
323.15 K, x2 = 0.4 | 755.97 | 1218.8 | 1.556
323.15 K, x2 = 0.5 | 757.89 | 1211.4 | 1.517
323.15 K, x2 = 0.6 | 760.45 | 1203.4 | 1.479
323.15 K, x2 = 0.7 | 763.86 | 1194.2 | 1.452
323.15 K, x2 = 0.8 | 768.59 | 1183.6 | 1.435
323.15 K, x2 = 0.9 | 775.44 | 1171 | 1.404
328.15 K, x2 = 0 | 749.18 | 1229.3 | 1.671
328.15 K, x2 = 0.1 | 749.13 | 1220.8 | 1.563
328.15 K, x2 = 0.2 | 749.82 | 1214.2 | 1.514
328.15 K, x2 = 0.3 | 750.87 | 1207.7 | 1.464
328.15 K, x2 = 0.4 | 752.26 | 1200.8 | 1.422
328.15 K, x2 = 0.5 | 754.13 | 1193.4 | 1.383
328.15 K, x2 = 0.6 | 756.63 | 1185.4 | 1.346
328.15 K, x2 = 0.7 | 759.99 | 1176.4 | 1.317
328.15 K, x2 = 0.8 | 764.66 | 1166 | 1.297
328.15 K, x2 = 0.9 | 771.46 | 1153.8 | 1.264
333.15 K, x2 = 0 | 745.74 | 1211.8 | 1.537
333.15 K, x2 = 0.1 | 745.58 | 1203.1 | 1.437
333.15 K, x2 = 0.2 | 746.2 | 1196.3 | 1.389
333.15 K, x2 = 0.3 | 747.19 | 1189.8 | 1.343
333.15 K, x2 = 0.4 | 748.53 | 1182.9 | 1.303
333.15 K, x2 = 0.5 | 750.34 | 1175.6 | 1.266
333.15 K, x2 = 0.6 | 752.78 | 1167.6 | 1.23
333.15 K, x2 = 0.7 | 756.08 | 1158.7 | 1.199
333.15 K, x2 = 0.8 | 760.69 | 1148.5 | 1.177
333.15 K, x2 = 0.9 | 767.42 | 1136.6 | 1.143
338.15 K, x2 = 0 | 742.31 | 1194.4 | 1.421
338.15 K, x2 = 0.1 | 742.04 | 1185.5 | 1.328
338.15 K, x2 = 0.2 | 742.57 | 1178.7 | 1.282
338.15 K, x2 = 0.3 | 743.51 | 1172.1 | 1.238
338.15 K, x2 = 0.4 | 744.78 | 1165.2 | 1.2
338.15 K, x2 = 0.5 | 746.53 | 1157.9 | 1.163
338.15 K, x2 = 0.6 | 748.9 | 1149.9 | 1.127
338.15 K, x2 = 0.7 | 752.13 | 1141 | 1.095
338.15 K, x2 = 0.8 | 756.66 | 1131 | 1.071
338.15 K, x2 = 0.9 | 763.33 | 1119.5 | 1.036
343.15 K, x2 = 0 | 738.88 | 1177.5 | 1.316
343.15 K, x2 = 0.1 | 738.5 | 1168.3 | 1.23
343.15 K, x2 = 0.2 | 738.94 | 1161.2 | 1.185
343.15 K, x2 = 0.3 | 739.8 | 1154.6 | 1.144
343.15 K, x2 = 0.4 | 741.01 | 1147.7 | 1.107
343.15 K, x2 = 0.5 | 742.68 | 1140.3 | 1.071
343.15 K, x2 = 0.6 | 744.98 | 1132.3 | 1.037
343.15 K, x2 = 0.7 | 748.13 | 1123.5 | 1.004
343.15 K, x2 = 0.8 | 752.59 | 1113.6 | 0.9782
343.15 K, x2 = 0.9 | 759.19 | 1102.4 | 0.9425
